Data as given in patent publication US8410090B2, “Heterocyclylamide-substituted thiazoles, pyrroles and thiophenes” (AiCuris GmbH & Co. KG, priority 2005, dated 2013).

Tests used:
[1] = tested on: HCMV; test: Anti-HCMV cytopathogenicity test (CPE inhibition); format: cell-based, human cytomegalovirus; conditions: for EC50: Human betaherpesvirus 5, 144 h, concentration inhibiting CPE by 50% vs untreated virus control, HCMV-infected NHDF cells, M.O.I. 0.001-0.002, 6 days; for SI HCMV (selectivity index = CC50 (NHDF)/EC50 (HCMV)): ratio CC50 (NHDF)/EC50 (HCMV)
Procedure: Anti-HCMV (Anti-Human Cytomegalovirus) Cytopathogenicity Tests The test compounds are employed as 50 millimolar (mM) solutions in dimethyl sulphoxide (DMSO). Ganciclovir, foscarnet and cidofovir are used as reference compounds. After addition of in each case 2 μl of the 50, 5, 0.5 and 0.05 mM DMSO stock solutions to 98 μl portions of cell culture medium in row […] for duplicate determinations, 1:2 dilutions are carried out with 50 μl portions of medium up to row 11 of the 96-well plate. The wells in rows 1 and 12 each contain 50 μl of medium. Then 150 μl portions of a suspension of 1×10^4 cells (human prepuce fibroblasts [NHDF]) are pipetted into each of the wells (row 1=cell control) and, in rows 2-12, a mixture of HCMV-infected and uninfected NHDF cells (M.O.I.=0.001-0.002), i.e. 1-2 infected cells per 1000 uninfected cells. Row 12 (without substance) serves as virus control. The final test concentrations are 250-0.0005 μM. The plates are incubated at 37° C./5% CO2 for 6 days, i.e. until all the cells are infected in the virus controls (100% cytopathogenic effect [CPE]). The wells are then fixed and stained by adding a mixture of formalin and Giemsa's dye (30 minutes), washed with double-distilled water and dried in a drying oven at 50° C. The plates are then assessed visually using an overhead microscope (Plaque Multiplier from Technomara). The following data can be acquired from the test plates: EC50 (HCMV)=substance concentration in μM which inhibits the CPE (cytopathic effect) by 50% compared with the untreated virus control; SI (selectivity index)=CC50 (NHDF)/EC50 (HCMV).

[2] = Cytostatic effect on NHDF cells in the anti-HCMV cytopathogenicity test; format: cell-based; conditions: human, NHDF cells (human prepuce fibroblasts); maximum concentration with no visible cytostatic effects on NHDF cells vs untreated cell control; 6 days incubation
Procedure: Anti-HCMV (Anti-Human Cytomegalovirus) Cytopathogenicity Tests The test compounds are employed as 50 millimolar (mM) solutions in dimethyl sulphoxide (DMSO). Ganciclovir, foscarnet and cidofovir are used as reference compounds. After addition of in each case 2 μl of the 50, 5, 0.5 and 0.05 mM DMSO stock solutions to 98 μl portions of cell culture medium in row […] for duplicate determinations, 1:2 dilutions are carried out with 50 μl portions of medium up to row 11 of the 96-well plate. The wells in rows 1 and 12 each contain 50 μl of medium. Then 150 μl portions of a suspension of 1×10^4 cells (human prepuce fibroblasts [NHDF]) are pipetted into each of the wells (row 1=cell control) and, in rows 2-12, a mixture of HCMV-infected and uninfected NHDF cells (M.O.I.=0.001-0.002), i.e. 1-2 infected cells per 1000 uninfected cells. Row 12 (without substance) serves as virus control. The final test concentrations are 250-0.0005 μM. The plates are incubated at 37° C./5% CO2 for 6 days, i.e. until all the cells are infected in the virus controls (100% cytopathogenic effect [CPE]). The wells are then fixed and stained by adding a mixture of formalin and Giemsa's dye (30 minutes), washed with double-distilled water and dried in a drying oven at 50° C. The plates are then assessed visually using an overhead microscope (Plaque Multiplier from Technomara). The following data can be acquired from the test plates: CC50 (NHDF)=maximum substance concentration in μM at which no visible cytostatic effects on the cells are evident by comparison with the untreated cell control;

**Q.** With Cc1ccc(N2CCN(C(=O)c3nc(NC(=O)Nc4ccc(OC(F)(F)F)cc4)sc3C)CC2)nc1 [Example 14] as the compound, how does the EC50 [1] read?
**A.** 0.0016 µM

**Q.** What about the “SI HCMV (selectivity index = CC50 (NHDF)/EC50 (HCMV))” value [1] of the same compound?
**A.** 7333

**Q.** What about the CC50 at 6 days [2] of the same compound?
**A.** 11 µM

**Q.** What does the source list for CCn1cc(NC(=O)Nc2ccc(OC(F)(F)F)cc2)cc1C(=O)N1CCN(c2ccc(C)cn2)CC1 [Example 4, N-(1-Ethyl-5-{[4-(5-methylpyridin-2-yl)piperazin-1-yl]carbonyl}-1H-pyrrol-3-yl)-N′-[4-(trifluoromethoxy)phenyl]urea]?
**A.** EC50 [1]: 0.0007 µM; SI HCMV (selectivity index = CC50 (NHDF)/EC50 (HCMV)) [1]: 28767; CC50 at 6 days [2]: 21 µM

**Q.** With Cc1ccc(N2CCN(C(=O)c3cc(NC(=O)Nc4ccc(OC(F)(F)F)cc4)cs3)CC2)nc1 [Example 9, N-(5-{[4-(5-Methylpyridin-2-yl)piperazin-1-yl]carbonyl}-3-thienyl)-N′-[4-(trifluoromethoxy)-phenyl]urea] as the compound, how does the EC50 [1] read?
**A.** 0.0059 µM

**Q.** What about the “SI HCMV (selectivity index = CC50 (NHDF)/EC50 (HCMV))” value [1] of the same compound?
**A.** 3559

**Q.** And the CC50 at 6 days [2]?
**A.** 21 µM

**Q.** What does the source list for Cc1ccc(N2CCN(C(=O)c3cnc(NC(=O)Nc4ccc(OC(F)(F)F)cc4)s3)CC2)nc1 [Example 23]?
**A.** EC50 [1]: 0.0054 µM; SI HCMV (selectivity index = CC50 (NHDF)/EC50 (HCMV)) [1]: 2637; CC50 at 6 days [2]: 11 µM
